Source: publication PMC6010143, “Synthesis of new pyridothienopyrimidinone derivatives as Pim-1 inhibitors” (Journal of Enzyme Inhibition and Medicinal Chemistry, 2017)
Read-outs that look alike come from different tables or passages of the source.

Experiments:
pim-1 = details: cited from earlier work
pim-1 kinase = target: T1, pim-1 kinase (Homo sapiens, UniProt P11309); assay: Pim-1 kinase radioisotope (33P-ATP) assay, Kinexus compound profiling service; type: biochemical; details: for pim-1 inhibition, in words: at 50 μM
T1 construct: The kinase used was cloned, expressed and purified using proprietary methods
Experimental: The kinase inhibitory activity of the synthesized compounds was determined using the Kinexus compound profiling service, Canada. All the compounds were tested for their inhibitory activity against pim-1 kinase at 50 μM. The kinase used was cloned, expressed and purified using proprietary methods. Quality control testing is routinely performed to ensure compliance to acceptable standards. ^33P-ATP was purchased from PerkinElmer. All other materials were of standard laboratory grade.
The protein kinase target profiling was executed via employing a radioisotope assay format. All the assays were performed in a prepared radioactive working area. The protein kinase profiling assays were performed at room temperature for 20–30 min in a final volume of 25 μL according to the following assay reaction components: Component 1; 5 μl of diluted active protein kinase (∼10–50 nM final concentration in the assay). Component 2; 5 μl of stock solution of substrate. Component 3; 5 μl of kinase assay buffer. Component 4; 5 μl of the test compound, Staurosporine at 1 μM or 10% DMSO.
The assay was initiated by the addition of ^33P-ATP, followed by incubation at ambient temperature for 30 min. The assay was then terminated by spotting 10 μL of the reaction mixture onto a Multiscreen phosphocellulose P81 plate. The Multiscreen phosphocellulose P81 plate was washed three times for approximately 15 min each in a 1% phosphoric acid solution. The radioactivity on the P81 plate was counted in the presence of scintillation fluid in a Trilux scintillation counter. Blank control was set up that included all the assay components except the addition of the appropriate substrate (replaced with equal volume of assay dilution buffer). The corrected activity for protein kinase target was determined by removing the blank control value.

[1] = tested on: human breast adenocarcinoma (MCF7); assay: MTT cytotoxicity assay, MCF7; type: cell-based; details: for IC50: 72 h exposure, means of three experiments
Experimental: (§1) Cancer cells from different cancer cell lines were purchased from American type Cell Culture collection (ATCC, Manassas, VA). The cell lines used in this study were human breast adenocarcinoma (MCF7), human colon adenocarcinoma (HCT116) and human prostate cancer cells (PC3). The cell lines were grown on the appropriate growth medium Dulbecco's modified Eagle's medium (DMEM) or Roswell Park Memorial Institute medium (RPMI 1640) supplemented with […] of streptomycin, 100 units/mL of penicillin and 10% of heat-inactivated fetal bovine serum in a humidified, 5% (v/v) CO2 atmosphere at 37 °C.
(§2) Exponentially growing cells from different cancer cell lines were trypsinized, counted and seeded at the appropriate densities (2000–10 000 cells/0.33 cm^2 well) into 96-well microtiter plates. The cells were incubated in a humidified atmosphere at 37°C for 24 h. Then, the cells were exposed to different concentrations of compounds 6c, 7a, 7c, 7d, 8b and 9 (0.1, 10, 100 and 1000 μM) for 72 h. The viability of the treated cells was determined using MTT technique. The media were removed; cells were incubated with 200 μL of 5% MTT solution/well (Sigma Aldrich, St. Louis, MO) and were allowed to metabolize the dye into colored-insoluble formazan crystals for 2 h. The remaining MTT solution was discarded from the wells and the formazan crystals were dissolved in 200 μL/well-acidified isopropanol for 30 min, covered with aluminum foil and with continuous shaking using a MaxQ 2000 plate shaker (Thermo Fisher Scientific Inc, MI) at room temperature. The absorbance was measured at 570 nm using a Stat FaxR 4200 plate reader (Awareness Technology, Inc., Palm City, FL). […] The results are shown in Table 2 and represented graphically in Figure 5.

[2] = tested on: human colon adenocarcinoma (HCT116); assay: MTT cytotoxicity assay, HCT116; type: cell-based; details: for IC50: 72 h exposure, means of three experiments
Experimental: as §1, §2

[3] = tested on: human prostate cancer cells (PC3); assay: MTT cytotoxicity assay, PC3; type: cell-based; details: for IC50: 72 h exposure, means of three experiments
Experimental: as §1, §2

pim-2 = details: cited from earlier work
pim-3 = details: cited from earlier work

T1 sequence (P11309 whole entry): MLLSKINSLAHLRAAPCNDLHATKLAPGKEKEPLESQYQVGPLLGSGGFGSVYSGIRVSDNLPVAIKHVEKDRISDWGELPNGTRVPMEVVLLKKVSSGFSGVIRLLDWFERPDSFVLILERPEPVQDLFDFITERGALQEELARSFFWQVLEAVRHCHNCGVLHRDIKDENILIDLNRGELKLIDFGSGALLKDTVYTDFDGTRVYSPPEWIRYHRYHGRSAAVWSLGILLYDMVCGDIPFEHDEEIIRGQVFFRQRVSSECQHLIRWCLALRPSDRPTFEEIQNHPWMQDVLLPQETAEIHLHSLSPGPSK

SMILES: COc1ccc(N2CCN(C(=O)c3sc4nc(C)c(Br)c(C)c4c3N)CC2)cc1 [V]
- IC50 (pim-1; Figure 2, earlier thieno[2,3-b]pyridine): 12.7 µM

SMILES: Cc1nc2sc3c(=O)[nH]c(CC(=O)O)nc3c2c(C)c1Br [Compound 11, (8-Bromo-7,9-dimethyl-4-oxo-3,4-dihydropyrido[3',2':4,5]thieno[3,2-d]pyrimidin-2-yl)acetic acid]
- pim-1 inhibition, in words (pim-1 kinase): poor
- inhibition at 50 µM (pim-1 kinase; test compounds at 50 μM): 19%
- melting point: > 300 °C

SMILES: CN[C@@H]1C[C@H]2O[C@@](C)([C@@H]1OC)n1c3ccccc3c3c4c(c5c6ccccc6n2c5c31)C(=O)NC4 [Staurosporine, reference compound]
- inhibition at 1 µM (pim-1 kinase; read-out: % Inhibition of pim-1 kinase): 93%

SMILES: CC(=O)Cc1nc2c(sc3nc(C)c(Br)c(C)c32)c(=O)[nH]1 [Compound 9, 8-Bromo-7,9-dimethyl-2-(2-oxopropyl)pyrido[3',2':4,5]thieno[3,2-d]pyrimidin-4(3H)-one]
- IC50 (pim-1 kinase): 4.18 ± 0.076 µM
- inhibition at 50 µM (pim-1 kinase; test compounds at 50 μM): 89%
- cytotoxic activity on MCF7, in words [1]: weak
- IC50 ([1]; Homo sapiens, MCF7, 72 h): 123 ± 12 µM
- cytotoxic activity on HCT116, in words [2]: weak
- IC50 ([2]; Homo sapiens, HCT-116, 72 h): 151 ± 4.04 µM
- cytotoxic activity on PC3, in words [3]: weak
- IC50 ([3]; Homo sapiens, 72 h): 183 ± 12.1 µM

SMILES: Cc1nc2c(sc3nc(C)c(Br)c(C)c32)c(=O)[nH]1 [Compound 8a, 8-Bromo-2,7,9-trimethylpyrido[3',2':4,5]thieno[3,2–d]pyrimidin-4(3H)-one]
- pim-1 inhibition, in words (pim-1 kinase): moderate
- inhibition at 50 µM (pim-1 kinase; test compounds at 50 μM): 51%
- melting point: > 300 °C

SMILES: Cc1nc2sc3c(=O)[nH]c(-c4ccccc4F)nc3c2c(C)c1Br [Compound 6b, 8-Bromo-2-(2-fluorophenyl)-7,9-dimethylpyrido[3',2':4,5]thieno[3,2-d]pyrimidin-4(3H)-one]
- pim-1 inhibition, in words (pim-1 kinase): moderate
- inhibition at 50 µM (pim-1 kinase; test compounds at 50 μM): 61%
- melting point: 295 to 296 °C

SMILES: Cc1nc2sc3c(c2c(C)c1Br)NC(c1ccccc1C(F)(F)F)NC3=O (stereo not shown) [Compound 7d, 8-Bromo-7,9-dimethyl-2-[2-(trifluoromethyl)phenyl]-2,3-dihydropyrido[3',2':4,5]thieno[3,2-d]pyrimidin-4(1H)-one]
- IC50 (pim-1 kinase): 1.97 ± 0.022 µM
- inhibition at 50 µM (pim-1 kinase; test compounds at 50 μM): 98%
- IC50 [1]: 30.2 ± 0.8 µM
- IC50 ([1]; Homo sapiens, MCF7, 72 h): 18 to 38 µM
- IC50 [2]: 30 ± 0.55 µM
- IC50 ([2]; Homo sapiens, HCT-116, 72 h): 18 to 38 µM

SMILES: CCc1nc2c(sc3nc(C)c(Br)c(C)c32)c(=O)[nH]1 [Compound 8c, 8-Bromo-2-ethyl-7,9-dimethylpyrido[3',2':4,5]thieno[3,2-d]pyrimidin-4(3H)-one]
- inhibition at 50 µM (pim-1 kinase; test compounds at 50 μM): 23%
- % Inhibition of pim-1 kinase (pim-1 kinase; test compounds at 50 μM, 50 µM): 17%
- melting point: > 300 °C

SMILES: Cc1nc2sc3c(c2c(C)c1Br)NC(c1ccccc1Cl)NC3=O (stereo not shown) [Compound 7a, 8-Bromo-2-(2-chlorophenyl)-7,9-dimethyl-2,3-dihydropyrido[3',2':4,5]thieno[3,2-d]pyrimidin-4(1H)-one]
- IC50 (pim-1 kinase): 1.18 ± 0.14 µM
- inhibition at 50 µM (pim-1 kinase; test compounds at 50 μM): 81%
- IC50 [1]: 23.8 ± 0.4 µM
- IC50 ([1]; Homo sapiens, MCF7, 72 h): 18 to 38 µM
- IC50 [2]: 18.3 ± 0.68 µM
- IC50 ([2]; Homo sapiens, HCT-116, 72 h): 18 to 38 µM
- IC50 [3]: 24.2 ± 0.91 µM
- IC50 ([3]; Homo sapiens, 72 h): 18 to 38 µM

SMILES: O=c1[nH]c(CNc2cccc(O)c2)nc2c1sc1ccc(Br)cc12 [VII]
- Ki (pim-1; Figure 3): 0.8 nM
- Ki (pim-2; Figure 3): 60 nM
- Ki (pim-3; Figure 3): 0.004 µM

SMILES: Cc1nc2sc3c(c2c(C)c1Br)NC(c1ccccc1F)NC3=O (stereo not shown) [Compound 7b, 8-Bromo-2-(2-fluorophenyl)-7,9-dimethyl-2,3-dihydropyrido[3',2':4,5]thieno[3,2-d]pyrimidin-4(1H)-one]
- pim-1 inhibition, in words (pim-1 kinase): moderate
- inhibition at 50 µM (pim-1 kinase; test compounds at 50 μM): 66%
- melting point: 292 to 293 °C

SMILES: Cc1nc2sc3c(=O)[nH]c(-c4ccccc4C(F)(F)F)nc3c2c(C)c1Br [Compound 6d, 8-Bromo-7,9-dimethyl-2-[2-(trifluoromethyl)phenyl]pyrido[3',2':4,5]thieno[3,2-d]pyrimidin-4(3H)-one]
- pim-1 inhibition, in words (pim-1 kinase): moderate
- inhibition at 50 µM (pim-1 kinase; test compounds at 50 μM): 54%
- melting point: 255 to 256 °C

SMILES: CN(C)Cc1nc2c(sc3ccc(-c4ccc(O)cc4)cc32)c(=O)[nH]1 [VI]
- Ki (pim-1; Figure 3): 2 nM
- Ki (pim-2; Figure 3): 3 nM
- Ki (pim-3; Figure 3): 0.0005 µM

SMILES: Cc1nc2sc(C(N)=O)c(N)c2c(C)c1Br [Compound 4, 3-Amino-5-bromo-4,6-dimethylthieno[2,3-b]pyridine-2-carboxamide]
- inhibition at 50 µM (pim-1 kinase; test compounds at 50 μM): 16%
- melting point: 260 to 261 °C

SMILES: O=C(O)c1ccc2c(c1)nc(Nc1cccc(Cl)c1)c1ccncc12 [CX-4595]
- IC50 (pim-1; Figure 1): 0.048 µM
- IC50 (pim-2; Figure 1): 0.186 µM

SMILES: Cc1nc2sc3c(=O)[nH]c(C(F)(F)F)nc3c2c(C)c1Br [Compound 8b, 8-Bromo-7,9-dimethyl-2-(trifluoromethyl)pyrido[3',2':4,5]thieno[3,2-d]pyrimidin-4(3H)-one]
- IC50 (pim-1 kinase): 8.83 ± 0.028 µM
- inhibition at 50 µM (pim-1 kinase; test compounds at 50 μM): 96%
- cytotoxic activity on MCF7, in words [1]: potent
- IC50 ([1]; Homo sapiens, MCF7, 72 h): 28.6 ± 1 µM
- cytotoxic activity on HCT116, in words [2]: potent
- IC50 ([2]; Homo sapiens, HCT-116, 72 h): 23.5 ± 0.53 µM
- cytotoxic activity on PC3, in words [3]: moderate
- IC50 ([3]; Homo sapiens, 72 h): 59.9 ± 2.48 µM

SMILES: CCOC(=O)Cc1nc2c(sc3nc(C)c(Br)c(C)c32)c(=O)[nH]1 [Compound 10, Ethyl (8-bromo-7,9-dimethyl-4-oxo-3,4-dihydropyrido[3',2':4,5]thieno[3,2-d]pyrimidin-2-yl)acetate]
- pim-1 inhibition, in words (pim-1 kinase): poor
- inhibition at 50 µM (pim-1 kinase; test compounds at 50 μM): 31%
- melting point: 277 to 278 °C

SMILES: CC(C)(O)[C@H]1CC[C@H](Nc2ccc3ncc(-c4cccc(C(F)(F)F)c4)n3n2)CC1 [SGI-9481]
- Ki (pim-1; Figure 1): 5 nM
- Ki (pim-2; Figure 1): 239 nM
- Ki (pim-3; Figure 1): 0.042 µM

SMILES: Cc1nc2sc3c(=O)[nH]cnc3c2c(C)c1Br [Compound 5, 8-bromo-7,9-dimethylpyrido[3′,2′:4,5]thieno[3,2-d]pyrimidin-4(3H)-one]
- inhibition at 50 µM (pim-1 kinase; test compounds at 50 μM): 37%

SMILES: Cc1nc2sc3c(c2c(C)c1Br)NC(c1ccccc1O)NC3=O (stereo not shown) [Compound 7c, 8-Bromo-2-(2-hydroxyphenyl)-7,9-dimethyl-2,3-dihydropyrido[3',2':4,5]thieno[3,2-d]pyrimidin-4(1H)-one]
- IC50 (pim-1 kinase): 1.38 ± 0.025 µM
- inhibition at 50 µM (pim-1 kinase; test compounds at 50 μM): 93%
- cytotoxic activity on MCF7, in words [1]: moderate
- IC50 ([1]; Homo sapiens, MCF7, 72 h): 59.6 ± 1.2 µM
- cytotoxic activity on HCT116, in words [2]: moderate
- IC50 ([2]; Homo sapiens, HCT-116, 72 h): 181 ± 5.03 µM
- cytotoxic activity on PC3, in words [3]: moderate
- IC50 ([3]; Homo sapiens, 72 h): 58.2 ± 3.48 µM

SMILES: NC1CCN(c2ccncc2NC(=O)c2ccc(F)c(-c3c(F)cccc3F)n2)CC1O (stereo not shown) [LGB321]
- Ki (pim-1; Figure 1): 0.001 nM
- Ki (pim-2; Figure 1): 0.0021 nM

SMILES: Cc1nc2sc3c(=O)[nH]c(-c4ccccc4Cl)nc3c2c(C)c1Br [Compound 6a, 8-Bromo-2-(2-chlorophenyl)-7,9-dimethylpyrido[3',2':4,5]thieno[3,2-d]pyrimidin-4(3H)-one]
- IC50 (pim-1 kinase): > 100 µM
- inhibition at 50 µM (pim-1 kinase; test compounds at 50 μM): 36%
- melting point: > 300 °C

SMILES: Cc1nc2sc3c(=O)[nH]c(-c4ccccc4O)nc3c2c(C)c1Br [Compound 6c, 8-Bromo-2-(2-hydroxyphenyl)-7,9-dimethylpyrido[3',2':4,5]thieno[3,2-d]pyrimidin-4(3H)-one]
- IC50 (pim-1 kinase): 4.62 ± 0.039 µM
- inhibition at 50 µM (pim-1 kinase; test compounds at 50 μM): 85%
- cytotoxic activity on MCF7, in words [1]: moderate
- IC50 ([1]; Homo sapiens, MCF7, 72 h): 35.5 ± 1.3 µM
- cytotoxic activity on HCT116, in words [2]: moderate
- IC50 ([2]; Homo sapiens, HCT-116, 72 h): 63.3 ± 4.5 µM
- cytotoxic activity on PC3, in words [3]: moderate
- IC50 ([3]; Homo sapiens, 72 h): 60.1 ± 4.65 µM
